Assay results from US4742053A, “3-Isoquinoliniomethyl cephalosporin derivatives” (Banyu Pharmaceutical Co., Ltd., priority 1984, dated 1988).
In brackets after ≈: the same amount, converted by molar mass. Like-named read-outs stand apart in the source and are kept apart here.

Assays:
Assay in all cases: MIC by agar plate dilution method
Type in all cases: cell-based
A. calcoaceticus No. 14 = conditions: Acinetobacter calcoaceticus, NO.14, A. calcoaceticus No. 14; 10^6 CFU/ml; read-out: Minimum Inhibitory Concentration
Procedure: (§1) The minimum inhibitory concentrations (MIC: μg/ml) of the compounds of the present invention against various microorganisms were measured by an agar plate dilution method (inoculum size: 10^6 CFU/ml) by using Sensitivity Disk Agar (Nissui) in comparison with Cefotaxime and Ceftazidime as comparative compounds.
(§2) Minimum Inhibitory Concentration (μg/ml; 10^6 CFU/ml)

C. freundii No. 7 = conditions: Citrobacter freundii; C. freundii No. 7; 10^6 CFU/ml; read-out: Minimum Inhibitory Concentration
Procedure: as §1, §2

E. cloaceae Nek 39 = conditions: E. cloaceae Nek 39; 10^6 CFU/ml; read-out: Minimum Inhibitory Concentration
Procedure: as §1, §2

E. coli C/Rms149 = conditions: Escherichia coli, read-out: Minimum Inhibitory Concentration, E. coli C/Rms149; 10^6 CFU/ml
Procedure: as §1, §2

E. coli CSH2 = conditions: Escherichia coli, 10^6 CFU/ml, read-out: Minimum Inhibitory Concentration
Procedure: as §1, §2

E. coli CSH = conditions: Escherichia coli, 10^6 CFU/ml, read-out: Minimum Inhibitory Concentration
Procedure: as §1, §2

E. coli ML1410/Rte16 = conditions: Escherichia coli, ML1410/RTE16, read-out: Minimum Inhibitory Concentration, E. coli ML1410/Rte16; 10^6 CFU/ml
Procedure: as §1, §2

E. coli NIHJJC-2 = conditions: Escherichia coli, NIHJJC2, E. coli NIHJJC-2; 10^6 CFU/ml; read-out: Minimum Inhibitory Concentration
Procedure: as §1, §2

E. coli W3630/Rms212 = conditions: Escherichia coli, W3630/RMS212, read-out: Minimum Inhibitory Concentration, E. coli W3630/Rms212; 10^6 CFU/ml
Procedure: as §1, §2

E. coli W3630/Rms213 = conditions: Escherichia coli, W3630/RMS213, read-out: Minimum Inhibitory Concentration, E. coli W3630/Rms213; 10^6 CFU/ml
Procedure: as §1, §2

K. pneumoniae No. 42 = conditions: Klebsiella pneumoniae
Procedure: as §1, §2

P. aeruginosa AK109 = conditions: Pseudomonas aeruginosa, AK109, P. aeruginosa AK109; 10^6 CFU/ml; read-out: Minimum Inhibitory Concentration
Procedure: as §1, §2

P. aeruginosa AKR17 = conditions: Pseudomonas aeruginosa, AKR17, P. aeruginosa AKR17; 10^6 CFU/ml; read-out: Minimum Inhibitory Concentration
Procedure: as §1, §2

P. cepacia 23 = conditions: Burkholderia cepacia; P. cepacia 23; 10^6 CFU/ml; read-out: Minimum Inhibitory Concentration
Procedure: as §1, §2

P. maltophilia IID 1275 = conditions: Stenotrophomonas maltophilia, IID1275; P. maltophilia IID 1275; 10^6 CFU/ml; read-out: Minimum Inhibitory Concentration
Procedure: as §1, §2

P. mirabilis JY10 = conditions: Proteus mirabilis
Procedure: as §1, §2

P. vulgaris No. 33 = conditions: Proteus vulgaris; P. vulgaris No. 33; 10^6 CFU/ml; read-out: Minimum Inhibitory Concentration
Procedure: as §1, §2

P. vulgaris OB1043 = conditions: Proteus vulgaris
Procedure: as §1, §2

S. aureus JS-1 = conditions: Staphylococcus aureus, JS1; S. aureus JS-1; 10^6 CFU/ml; read-out: Minimum Inhibitory Concentration
Procedure: as §1, §2

S. aureus NIHJJC-1 = conditions: Staphylococcus aureus, NIHJJC1, S. aureus NIHJJC-1; 10^6 CFU/ml; read-out: Minimum Inhibitory Concentration
Procedure: as §1, §2

S. marcescens No. 16-2 = conditions: Serratia marcescens, NO.162; S. marcescens No. 16-2; 10^6 CFU/ml; read-out: Minimum Inhibitory Concentration
Procedure: as §1, §2

[1] = K. pneumoniae No. 42, 10^6 CFU/ml, read-out: Minimum Inhibitory Concentration
[2] = P. mirabilis JY10, 10^6 CFU/ml, read-out: Minimum Inhibitory Concentration
[3] = OB1043, P. vulgaris OB1043, 10^6 CFU/ml, read-out: Minimum Inhibitory Concentration

CO/N=C(\C(=O)NC1C(=O)N2C(C(=O)[O-])=C(C[N+]3(C)CCc4cc(O)ccc4C3)CSC12)c1csc(N)n1 (stereo not drawn) [Ex. 10, 7-[(Z)-2-(2-aminothiazol-4-yl)-2-methoxyiminoacetamido]-3-(6-hydroxy-2-methyl-1,2,3,4-tetrahydro-2-isoquinolinium)methyl-3-cephem-4-carboxylate]
MIC (A. calcoaceticus No. 14): 25 µg/mL (≈ 44.8 µM) | MIC (C. freundii No. 7): 1.56 µg/mL (≈ 2.79 µM) | MIC (E. cloaceae Nek 39): 0.78 µg/mL (≈ 1.4 µM) | MIC (E. coli C/Rms149): 0.1 µg/mL (≈ 0.179 µM) | MIC (E. coli CSH2): ≤ 0.05 µg/mL | MIC (E. coli CSH): 0.78 µg/mL (≈ 1.4 µM) | MIC (E. coli ML1410/Rte16): 0.1 µg/mL (≈ 0.179 µM) | MIC (E. coli NIHJJC-2): 0.1 µg/mL (≈ 0.179 µM) | MIC (E. coli W3630/Rms212): 0.2 µg/mL (≈ 0.358 µM) | MIC (E. coli W3630/Rms213): 1.56 µg/mL (≈ 2.79 µM) | MIC (K. pneumoniae No. 42; [1]): 0.2 µg/mL (≈ 0.358 µM) | MIC (P. aeruginosa AK109): 1.56 µg/mL (≈ 2.79 µM) | MIC (P. aeruginosa AKR17): > 25 µg/mL | MIC (P. cepacia 23): 6.25 µg/mL (≈ 11.2 µM) | MIC (P. maltophilia IID 1275): > 25 µg/mL | MIC (P. mirabilis JY10; [2]): 0.78 µg/mL (≈ 1.4 µM) | MIC (P. vulgaris No. 33): 0.1 µg/mL (≈ 0.179 µM) | MIC (P. vulgaris OB1043; OB1043, read-out: Minimum Inhibitory Concentration): 0.39 µg/mL (≈ 0.698 µM) | MIC (S. aureus JS-1): 6.25 µg/mL (≈ 11.2 µM) | MIC (S. aureus NIHJJC-1): 0.39 µg/mL (≈ 0.698 µM) | MIC (S. marcescens No. 16-2): 6.25 µg/mL (≈ 11.2 µM)

CON=C(C(=O)NC1C(=O)N2C(C(=O)[O-])=C(C[N+]3(C)CCc4c(ccc(O)c4O)C3)CSC12)c1csc(N)n1 (stereo not drawn) [Ex. 11, 7-[(Z)-2-(2-aminothiazol-4-yl)-2-methoxyiminoacetamido]-3-(5,6-dihydroxy-2-methyl-1,2,3,4-tetrahydro-2-isoquinolinium)methyl-3-cephem-4-carboxylate]
MIC (A. calcoaceticus No. 14): 0.39 µg/mL (≈ 0.679 µM) | MIC (C. freundii No. 7): 12.5 µg/mL (≈ 21.8 µM) | MIC (E. cloaceae Nek 39): 0.025 µg/mL (≈ 0.0435 µM) | MIC (E. coli C/Rms149): 0.1 µg/mL (≈ 0.174 µM) | MIC (E. coli CSH2): 0.39 µg/mL (≈ 0.679 µM) | MIC (E. coli CSH): 0.78 µg/mL (≈ 1.36 µM) | MIC (E. coli ML1410/Rte16): 0.1 µg/mL (≈ 0.174 µM) | MIC (E. coli NIHJJC-2): 0.05 µg/mL (≈ 0.087 µM) | MIC (E. coli W3630/Rms212): 0.025 µg/mL (≈ 0.0435 µM) | MIC (E. coli W3630/Rms213): 0.78 µg/mL (≈ 1.36 µM) | MIC (K. pneumoniae No. 42; NO.42, read-out: Minimum Inhibitory Concentration): 0.39 µg/mL (≈ 0.679 µM) | MIC (P. aeruginosa AK109): 0.2 µg/mL (≈ 0.348 µM) | MIC (P. aeruginosa AKR17): 6.25 µg/mL (≈ 10.9 µM) | MIC (P. cepacia 23): 0.2 µg/mL (≈ 0.348 µM) | MIC (P. maltophilia IID 1275): > 50 µg/mL | MIC (P. mirabilis JY10; JY10, read-out: Minimum Inhibitory Concentration): 0.39 µg/mL (≈ 0.679 µM) | MIC (P. vulgaris No. 33): 0.2 µg/mL (≈ 0.348 µM) | MIC (P. vulgaris OB1043; [3]): 1.56 µg/mL (≈ 2.71 µM) | MIC (S. aureus JS-1): 25 µg/mL (≈ 43.5 µM) | MIC (S. aureus NIHJJC-1): 6.25 µg/mL (≈ 10.9 µM) | MIC (S. marcescens No. 16-2): 12.5 µg/mL (≈ 21.8 µM)

CON=C(C(=O)NC1C(=O)N2C(C(=O)[O-])=C(C[N+]3(C)CCc4cc(O)c(O)c(O)c4C3)CSC12)c1csc(N)n1 (stereo not drawn) [Ex. 12, 7-[(Z)-2-(2-aminothiazol-4-yl)-2-methoxyiminoacetamido]-3-(2-methyl-1,2,3,4-tetrahydro-6,7,8-trihydroxy-2-isoquinolinium)methyl-3-cephem-4-carboxylate]
MIC (A. calcoaceticus No. 14): 25 µg/mL (≈ 42.3 µM) | MIC (C. freundii No. 7): 12.5 µg/mL (≈ 21.2 µM) | MIC (E. cloaceae Nek 39): 1.56 µg/mL (≈ 2.64 µM) | MIC (E. coli C/Rms149): 0.78 µg/mL (≈ 1.32 µM) | MIC (E. coli CSH2): 1.56 µg/mL (≈ 2.64 µM) | MIC (E. coli CSH): 3.12 µg/mL (≈ 5.28 µM) | MIC (E. coli ML1410/Rte16): 1.56 µg/mL (≈ 2.64 µM) | MIC (E. coli NIHJJC-2): 0.78 µg/mL (≈ 1.32 µM) | MIC (E. coli W3630/Rms212): 0.78 µg/mL (≈ 1.32 µM) | MIC (E. coli W3630/Rms213): 3.12 µg/mL (≈ 5.28 µM) | MIC (K. pneumoniae No. 42; [1]): 1.56 µg/mL (≈ 2.64 µM) | MIC (P. aeruginosa AK109): 25 µg/mL (≈ 42.3 µM) | MIC (P. aeruginosa AKR17): 50 µg/mL (≈ 84.7 µM) | MIC (P. cepacia 23): 1.56 µg/mL (≈ 2.64 µM) | MIC (P. maltophilia IID 1275): 100 µg/mL (≈ 169 µM) | MIC (P. mirabilis JY10; [2]): 0.78 µg/mL (≈ 1.32 µM) | MIC (P. vulgaris No. 33): 1.56 µg/mL (≈ 2.64 µM) | MIC (P. vulgaris OB1043; [3]): 3.12 µg/mL (≈ 5.28 µM) | MIC (S. aureus JS-1): 50 µg/mL (≈ 84.7 µM) | MIC (S. aureus NIHJJC-1): 25 µg/mL (≈ 42.3 µM) | MIC (S. marcescens No. 16-2): 100 µg/mL (≈ 169 µM)
